Test results reported in patent US20190352276A1, “INHIBITORS OF BRUTON'S TYROSINE KINASE” (Joint Stock Company "Biocad", priority 2016, published 2019).

What was measured:
[1] = Permeability through the monolayer of Caco-2 cells; assay type: in vitro ADME; settings: human; for Papp A→B at 2 h, 10 μM / Papp B→A at 2 h, 10 μM: 2 h at 37° C.; for efflux ratio at 2 h, 10 μM: read-out: efflux (Papp B-A/Papp A-B)
Source text: Assessment of permeability through the monolayer of Caco-2 cells allows to evaluate the ability of the candidate compounds to penetrate through biological membranes by active and passive transport.
Caco-2, the cells of the intestinal epithelium, had been cultured in transwell plate inserts with the filters (with pores of 0.4 μm, BD Falcon with High Density, #353495) for 21 days, and then the integrity of the monolayer were estimated with Lucifer Yellow dye (Sigma-Aldrich, USA) by standard protocol. When setting the A→B transfer, solutions of test substances were added in a buffer with pH 6.5 (Hanks solution, 10 mM HEPES, 15 mM glucose solution) with the concentration of 10 μM into the upper chamber; the lower chamber was filled with a buffer with pH 7.4 (Hanks solution, 10 mM HEPES, 15 mM glucose solution, 1% BSA). When setting B→A transfer, the upper chamber was filled with the buffer with pH 6.5, and solutions of the test substances were added in the buffer with pH 7.4 at the concentration of 10 μM in the lower chamber. Propranolol was used as a control substance (as it has high permeability).
We used gradient elution (1 mL/min flow rate). We determined the areas of peaks corresponding to the compounds. On the basis of peak areas in the calibration standards we determined the concentration of compound in the initial solution and in the samples from the wells of the upper and lower chambers.
Papp, permeability through the cell layer, was calculated using the following formula:
Papp=(C(t)*V)/(C(0)*t*Area), where
Papp is the effective constant of permeability, m/s V is the volume of solution (0.8 ml in A→B test, 0.2 ml in B→A test), ml Area is the surface area of the membrane (0.33 cm^2), cm^2 t is the time of incubation (7200 sec), sec C(0) is the concentration of the initial solution, μM C(t) is the concentration of the solution after 2 hours (the concentration in the sample from the well of the lower chamber in A→B test; the concentration in the sample from the well of the top chamber in B→A test), μM
The value was calculated with the following formula:
efflux=Papp B-A/Papp A-B, where
Papp A-B is the value of the permeability in the direct test (A→B); Papp B-A is the value of the permeability in the backward test in (B→A).

[2] = Stability in human blood plasma; settings: 10 μM in pooled human blood plasma, incubated 4 hours at 37° C.
Experimental: To assess the blood plasma stability of the drug candidates, we used pooled human blood plasma taken from ten healthy donors. The initial solution (10 Mm in DMSO) was diluted with pooled blood plasma to 10 μM (test solution). The test solution had been incubated for 4 hours in a dry block heater at 37° C. We determined peak areas of the compounds corresponding to the start of the test (before incubating) and the end of the test (after incubating in a dry block heater at 37° C.) by HPLC using Agilent1200 chromatograph (Agilent, USA) with preliminary protein precipitation with acetonitrile. We used gradient elution (1 mL/min flow rate). We determined amount of substance in the sample in % after incubation.
We evaluated the stability of the compounds.

[3] = General cytotoxicity on HepG2 cells (CC50; therapeutic index CC50 HepG2/IC50 Mino); assay type: cell-based; settings: human, HepG2 cells (hepatocellular carcinoma); Table 10; 72 hours, Alamar Blue; average of several tests
Outline: (§1)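 Cells seeded at 2*10^4 per well in DMEM, compounds added after 24 h at 200 μM to 4 μM final and incubated 72 h. Viability read with Alamar Blue to derive CC50; therapeutic index is CC50 (HepG2) divided by IC50 (Mino).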

[4] = tested on: HepG2 cells (hepatocellular carcinoma); assay: as above; assay type: cell-based; settings: Table 10; therapeutic index
Outline: as §1

[5] = Chemical stability in artificial gastric fluid (SGF without enzymes); settings: 10 μM in SGF without enzymes, pH=1.4, 37° C.
[6] = tested on: Z-138 (mantle cell lymphoma); assay: Antiproliferative activity, Z-138 cells (Alamar Blue); assay type: cell-based; settings: Homo sapiens, Table 10, 72 h, average of several tests
Outline: (§2)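 After at least one passage post-thaw, cells were seeded at ≈3*10^4 per well in RPMI-1640 containing 10% FBS. They were treated with compound dilutions (DMSO under 1%) for 72 h and then with Alamar Blue for 14-16 h. Living-cell fluorescence at 540/590 nm gave IC50 values through logistic fitting.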

[7] = tested on: Mino (mantle cell lymphoma); assay: Antiproliferative activity, Mino cells (Alamar Blue); assay type: cell-based; settings: Homo sapiens, Table 10, 72 h, average of several tests
Outline: as §2

[8] = tested on: DOHH2 (follicular lymphoma); assay: Antiproliferative activity, DOHH2 cells (Alamar Blue); assay type: cell-based; settings: Homo sapiens, DOHH-2, Table 10, 72 h, average of several tests
Experimental: Antiproliferative activity of BTK inhibitors was measured in cell-based bioassay on B-cells cultures: Mino (mantle cell lymphoma, ATCC® CRL-3000™), Z-138 (mantle cell lymphoma, ATCC® CRL-3001™) and DOHH2 (follicular lymphoma, Creative Bioarray CSC-C0219) using cell viability reagent Alamar Blue (Invitrogen, #DAL 1100). Cells were cultured in 10% FB S-supplemented (HyClone, #SH3008803/Gibco, #16140-071) RPMI-1640 (PanEco, #S330p) for at least 1 passage after thawing, washed with PBS and passaged in 96-well culture plates (Corning, #3599) with growth medium with 10% FBS (HyClone, #SH3008803/Gibco, #16140-071) and antibiotic (50 μg/ml of gentamicin (Biolot, #1.3.16))≈3*10^4 cells in 50 μl of medium per well.
The compounds were dissolved in DMSO and diluted with the assay medium to final concentrations ranging from […]. 150 μl of each diluted compound were then added to each well (final concentration of DMSO was less than 1%) and incubated at 37° C. in an incubator under 5% of CO2 for 72 h. After incubation, 20 μl of Alamar Blue reagent (Invitrogen, #DAL1100) were added to each well. The plates were shaked on an orbital shaker (Biosan, Latvia) and then incubated for 14-16 hours at 37° C. in the incubator.
The number of living cells were estimated, measuring the fluorescence signal at the excitation wavelength (REx) of 540 nm and the emission wavelength (λEm) of 590 nm on a microplate reader (Tecan Infinite M200Pro, Switzerland).
For each compound, IC50 was calculated using Magellan 7.2 software (Tecan, Switzerland) approximating experimental points by four-parameter logistic model with the optimization by Levenberg-Marquardt.

[9] = biological target: T1, recombinant Btk kinase enzyme (Homo sapiens, UniProt Q06187); assay: In vitro inhibition of Btk kinase activity (ADP-Glo); assay type: biochemical; settings: Table 8; ADP-Glo; read-out: IC50 kinase BTK
T1 construct: purchased SignalChem B10-10H
T1 sequence (Q06187 whole entry): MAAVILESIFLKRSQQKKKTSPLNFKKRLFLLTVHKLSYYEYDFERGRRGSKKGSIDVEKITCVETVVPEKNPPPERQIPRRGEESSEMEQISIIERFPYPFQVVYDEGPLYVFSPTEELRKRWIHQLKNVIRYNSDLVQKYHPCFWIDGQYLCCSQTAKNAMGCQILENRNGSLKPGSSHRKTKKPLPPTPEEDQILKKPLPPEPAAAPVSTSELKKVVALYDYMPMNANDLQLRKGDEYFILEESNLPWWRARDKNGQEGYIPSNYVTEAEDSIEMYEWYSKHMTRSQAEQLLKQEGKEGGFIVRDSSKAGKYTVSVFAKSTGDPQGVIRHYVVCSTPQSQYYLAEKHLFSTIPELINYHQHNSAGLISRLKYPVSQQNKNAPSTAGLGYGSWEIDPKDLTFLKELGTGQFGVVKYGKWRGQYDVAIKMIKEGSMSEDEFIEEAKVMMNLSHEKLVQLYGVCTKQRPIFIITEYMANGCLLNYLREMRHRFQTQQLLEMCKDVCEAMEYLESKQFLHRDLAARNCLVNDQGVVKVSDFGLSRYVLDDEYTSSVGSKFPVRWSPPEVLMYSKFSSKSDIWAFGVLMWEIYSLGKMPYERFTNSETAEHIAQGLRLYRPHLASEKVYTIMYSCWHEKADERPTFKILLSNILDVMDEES
Experimental: To assess Btk kinase activity described herein, SignalChem kinase system was used. Btk kinase activity was determined in the reaction between recombinant Btk kinase enzyme (SignalChem #B10-10H) and Poly (4:1 Glu, Tyr) peptide substrate in the presence of the inhibitor.
Staurosporine (Abcam Biochemicals, ab146588) was used as a reference inhibitor and 0.1% DMSO in the reaction buffer—as a negative control. The solution of 0.5 mg/mL peptide substrate and 50 &M ATP in the same buffer were added; the solution was incubated for 180 minutes at 37° C. To detect the amount of ATP taken up during the kinase reaction, the equivalent amount of ADP (from the ADP Glo Detection Kit (Promega, #V9101)) was used according to the protocol. The reaction mixture was equilibrated to room temperature. 25 µL of ADP-Glo Reagent were added into each well; the plate was incubated for 40 minutes. 50 μL of Kinase Detection Reagent were added; the plate was incubated for 30 minutes. The luminescence was measured with multimode plate reader (Tecan Infinite M200Pro, Switzerland). IC50 values were calculated using Magellan 7.2 software (Tecan, Switzerland) approximating experimental points by four-parameter logistic model with the optimization by Levenberg-Marquardt.

Structure (SMILES)	Papp A→B at 2 h, 10 μM [1]	Papp B→A at 2 h, 10 μM [1]	efflux ratio at 2 h, 10 μM [1]	Amount of substance in the sample, % (stability in human blood plasma) [2]	CC50 at 72 h [3]	CC50 (HepG2)/IC50 (Mino) [4]	Amount of substance in the sample in % (chemical stability) [5]	IC50 [6]	IC50 [7]	IC50 [8]	IC50 [9]
C=CC(=O)N1CCC[C@@H](n2nc(-c3ccc(Oc4cncc(C(N)=O)c4)cc3)c3cncc(Cl)c32)C1 [BCD-BTK-222, 5-(4-{7-chloro-1-[(3R)-1-(prop-2-enoyl)piperidin-3-yl]-1H-pyrazolo[4,3-c]pyridin-3-yl}phenoxy)pyridine-3-carboxamide]	5.06 ×10⁻⁶ cm/s	6.97 ×10⁻⁶ cm/s	1.38	100.0%	50.2 µM	2.60	100%	26.3 µM	19.4 µM	26.3 µM	
C=CC(=O)N1CCC[C@@H](n2nc(-c3ccc(C(=O)Nc4ncccc4F)cc3)c3cncc(Cl)c32)C1 [BCD-BTK-226, (R)-4-(1-(1-acryloylpiperidin-3-yl)-7-chloro-1H-pyrazolo[4,3-c]pyridin-3-yl)-N-(3-fluoropyridin-2-yl)benzamide]	12.1 ×10⁻⁶ cm/s	5.5 ×10⁻⁶ cm/s	0.45	84.5%	19 µM	3.19	100%	7.24 µM	5.97 µM	8.05 µM	
C=CC(=O)N1CCC[C@@H](n2nc(-c3ccc(C(=O)Nc4ccccn4)cc3)c3cncc(F)c32)C1 [BCD-BTK-243, (R)-4-(1-(1-acryloylpiperidin-3-yl)-7-fluoro-1H-pyrazolo[4,3-c]pyridin-3-yl)-N-(pyridin-2-yl)benzamide]							99.6%				0.0293 µM
CC#CC(=O)N1CCC[C@H]1Cn1nc(-c2ccc(Oc3ccncc3)cc2)c2cncc(Cl)c21 [BCD-BTK-259, (S)-1-(2-((7-chloro-3-(4-(pyridin-4-yloxy)phenyl)-1H-pyrazolo[4,3-c]pyridin-1-yl)methyl)pyrrolidin-1-yl)but-2-yn-1-one]				90.7%	47.6 µM	2.91	100%	27.5 µM	16.3 µM	17 µM	
C=CC(=O)N1CCC[C@@H](n2nc(-c3ccc(C(=O)Nc4cc(C(F)(F)CCC)ccn4)cc3)c3cncc(C#N)c32)C1 [BCD-BTK-268, (R)-4-(1-(1-acryloylpiperidin-3-yl)-7-cyano-1H-pyrazolo[4,3-c]pyridin-3-yl)-N-(4-(1,1-difluorobutyl)pyridin-2-yl)benzamide]				91.0%	> 100 µM	>9.69	99.3%	78.3 µM	10.3 µM	26.6 µM	
